Measurements published in PubChem BioAssay AID248 (DTP/NCI, 2004).
Several values for one entry are separate records, joined by “and”; a condition that tells them apart may be missing. Equal entries are not always repeated. Inconclusive results and toxic doses are left out. Rule as the data show it: active = T/C of 150% or more; inactive = T/C below 125%.

Tested on: L1210 leukemia ip in BDF1 mice, survival T/C
Test: NCI In Vivo Anticancer Drug Screen. Data for tumor model L1210 Leukemia (intraperitoneal) in B6D2F1 (BDF1) mice
Conditions: endpoint: mean survival time, higher = longer survival
Outline: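 Transplantable tumor model; survival measured in treated vs vehicle control mice. Value = treated/control.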

[1] = dose: 25.0 mg/kg/injection, schedule: Q04DX003 (ip), vehicle: Klucel (hydroxypropylcellulose) (HPC)
[2] = dose: 100.0 mg/kg/injection, schedule: Q04DX003 (ip), vehicle: Klucel (hydroxypropylcellulose) (HPC)

Measured: T/C

O=C1CN(/N=C/c2ccc(-c3ccc(Cl)c(Cl)c3)o2)C(=O)N1
inactive: dose: 50.0 mg/kg/injection, schedule: Q04DX002 (ip), vehicle: Klucel (hydroxypropylcellulose) (HPC) 100 % of control | dose: 100.0 mg/kg/injection, schedule: Q04DX002 (ip), vehicle: Klucel (hydroxypropylcellulose) (HPC) 110 % of control | dose: 200.0 mg/kg/injection, schedule: Q04DX002 (ip), vehicle: Klucel (hydroxypropylcellulose) (HPC) 95 % of control

O=C(COc1ccc(Cl)c(Cl)c1)NCc1ccc[n+](Cc2ccc(S(=O)(=O)F)cc2)c1
inactive: [1] 106 % of control | dose: 50.0 mg/kg/injection, schedule: Q04DX003 (ip), vehicle: Klucel (hydroxypropylcellulose) (HPC) 101 % of control | [2] 94 % of control and 101 % of control

CNC(=S)N/N=C(\C)CSC/C(C)=N/NC(=S)NC
inactive: dose: 1.56 mg/kg/injection, schedule: Q03HX024 (ip), vehicle: Klucel (hydroxypropylcellulose) (HPC) 97 % of control | dose: 3.12 mg/kg/injection, schedule: Q01DX009 (ip), vehicle: Klucel (hydroxypropylcellulose) (HPC) 95 % of control | dose: 3.12 mg/kg/injection, schedule: Q03HX024 (ip), vehicle: Klucel (hydroxypropylcellulose) (HPC) 93 % of control | dose: 6.25 mg/kg/injection, schedule: Q01DX009 (ip), vehicle: Klucel (hydroxypropylcellulose) (HPC) 92 % of control | dose: 6.25 mg/kg/injection, schedule: Q03HX024 (ip), vehicle: Klucel (hydroxypropylcellulose) (HPC) 92 % of control | dose: 6.25 mg/kg/injection, schedule: Q04DX003 (ip), vehicle: Klucel (hydroxypropylcellulose) (HPC) 95 % of control | dose: 12.5 mg/kg/injection, schedule: Q01DX009 (ip), vehicle: Klucel (hydroxypropylcellulose) (HPC) 93 % of control | dose: 12.5 mg/kg/injection, schedule: Q03HX024 (ip), vehicle: Klucel (hydroxypropylcellulose) (HPC) 95 % of control | dose: 12.5 mg/kg/injection, schedule: Q04DX003 (ip), vehicle: Klucel (hydroxypropylcellulose) (HPC) 102 % of control | dose: 25.0 mg/kg/injection, schedule: Q01DX009 (ip), vehicle: Klucel (hydroxypropylcellulose) (HPC) 109 % of control | dose: 25.0 mg/kg/injection, schedule: Q03HX024 (ip), vehicle: Klucel (hydroxypropylcellulose) (HPC) 103 % of control | [1] 97 % of control | dose: 30.0 mg/kg/injection, schedule: Q04DX003 (ip), vehicle: saline 98 % of control | dose: 50.0 mg/kg/injection, schedule: Q01DX009 (ip), vehicle: Klucel (hydroxypropylcellulose) (HPC) 104 % of control | dose: 50.0 mg/kg/injection, schedule: Q03HX024 (ip), vehicle: Klucel (hydroxypropylcellulose) (HPC) 106 % of control | dose: 60.0 mg/kg/injection, schedule: Q04DX003 (ip), vehicle: saline 98 % of control | dose: 100.0 mg/kg/injection, schedule: Q01DX009 (ip), vehicle: Klucel (hydroxypropylcellulose) (HPC) 108 % of control | dose: 100.0 mg/kg/injection, schedule: Q03HX024 (ip), vehicle: Klucel (hydroxypropylcellulose) (HPC) 116 % of control | [2] 92 % of control | dose: 120.0 mg/kg/injection, schedule: Q04DX003 (ip), vehicle: saline 101 % of control | dose: 200.0 mg/kg/injection, schedule: Q01DX009 (ip), vehicle: Klucel (hydroxypropylcellulose) (HPC) 96 % of control | dose: 200.0 mg/kg/injection, schedule: Q04DX003 (ip), vehicle: Klucel (hydroxypropylcellulose) (HPC) 107 % of control | dose: 400.0 mg/kg/injection, schedule: Q04DX003 (ip), vehicle: Klucel (hydroxypropylcellulose) (HPC) 98 % of control

CCCCCCCCCCCCCCCCCC1=Nc2cc(C)c(C)cc2NC(=O)C1
inactive: dose: 100.0 mg/kg/injection, schedule: Q01DX001 (ip), vehicle: carboxymethylcellulose (CMC) 93 % of control | dose: 200.0 mg/kg/injection, schedule: Q01DX001 (ip), vehicle: carboxymethylcellulose (CMC) 88 % of control | dose: 400.0 mg/kg/injection, schedule: Q01DX001 (ip), vehicle: carboxymethylcellulose (CMC) 86 % of control

COc1c2c(cc3c1C1(O)Cc4ccc5c(c4C[N+]1(C)CC3)OCO5)OCO2 (centres undefined)
inactive: dose: 100.0 mg/kg/injection, schedule: Q01DX001 (ip), vehicle: saline 95 % of control | dose: 200.0 mg/kg/injection, schedule: Q01DX001 (ip), vehicle: saline 91 % of control
